A short description of data set [1]: centrifuge in vitro dissolution test in MFD solution. Type of data set: physicochemical. As to conditions: centrifuge method; for MSSC (maximum supersaturated concentration): MFD solution pH 6.5, 37° C., supernatant; for C90: concentration at 90 minutes; for C1200: concentration at 1200 minutes. The method, then:
This example discloses an in vitro dissolution test termed the “centrifuge” method. This method was used to test the dissolution of material made by essentially the same method as that described in Example 1 except that the concentration of Compound 1 was decreased by a factor of 2 to 66.5 mg such that the ratio of compound to polymer was 1:1. (see Example 7, Table I).
In a 37° C. controlled temperature box, 1.8 mg of solid product from Example 1 was accurately weighed into an empty microcentrifuge tube (polypropylene, Sorenson Bioscience Inc.). The theoretical maximum concentration of compound in solution (e.g., if all compound dissolved) was 383 μgA/ml [1.8 mg dispersion (1000 μg/1 mg) (0.5 μg compound/μg dispersion) (0.764 compound assay)/1.8 ml=[…]]. This value is termed the theoretical maximum supersaturated concentration and is abbreviated Theoretical MSSC. 1.8 mL of a 37C phosphate buffered saline solution (8.2 mM NaCl, 1.1 mM Na2HPO4, 4.7 mM KH2PO4, pH 6.5, 290 mOsm/kg) containing 14.7 mM sodium taurocholic acid (Fluka) and 2.8 mM 1-palmitoyl-2-oleoyl-sn-glycero-3-phosphocholine (Avanti Polar Lipids) was added to the tube. The centrifuge tube was closed and a timer was started. The tube was then mixed continuously at the highest speed on a vortex mixer (Fisher Vortex Genie 2) for 60 seconds. The tube was transferred to a centrifuge (Marathon, Model Micro A) allowed to stand undisturbed for six minutes, then centrifuged at 13,000 G for 60 seconds. A 25 uL sample was removed from the solids-free supernatant in the centrifuge tube via pipette (Gilson Pipetman P-100) ten minutes after the timer was started. Solids in the centrifuge tube were resuspended by mixing the sample continuously on the vortex mixer for 30 seconds. The centrifuge tube was returned to the centrifuge and allowed to stand undisturbed until the next sample was taken. Each sample was centrifuged, sampled and resuspended as described previously. Each sample was diluted 1:1 with a solution containing 60/40 1.7 wt % ammonium ascorbate/acetonitrile, and the concentration of compound was determined by HPLC (Hewlett Packard 1090 HPLC, Phenomenex Ultracarb ODS 20 analytical column, absorbance measured at 215 nm with a diode array spectrophotometer). […] […] The maximum compound concentration observed, 125 μgA/ml, is termed the maximum supersaturated concentration of compound and is abbreviated MSSC.

For data set [2] the following is noted: solid amorphous dispersions in HPMCAS, pH 4.0; cited from earlier work.
Data set [3] is described as follows: syringe/filter in vitro dissolution test in MFD solution. It counts as physicochemical. Particulars: for C90: concentration at 90 minutes; for MSSC (maximum supersaturated concentration): syringe/filter method, MFD solution pH 6.5, 37° C., 0.45 μm filtrate. Here is the method:
This example discloses an in vitro dissolution test termed the “syringe/filter” method. In this method the concentration of test compound in solution is determined as a function of time. Test solution is held in a syringe from which samples are expelled through a filter at pre-determined time points. In between expelling samples from the syringe, the syringe is rotated (50 rpm) on a wheel held in an oven at 37° C.
A 20 GA hypodermic needle was attached to the syringe, and 10 mL of a model-fasted duodenal (MFD) solution at 37° C. was drawn into the syringe.
The MFD solution was prepared using the following procedure. […] This mixture was then mixed thoroughly by vortex mixer (Fisher Vortex Genie), and the solvent removed rapidly by roto-evaporator (Rotavapor RE121, Büchi), leaving a dry white surface dispersion coating the flask. The surface dispersion was then reconstituted with 200 mL of the 37° C. phosphate buffered saline.
The needle was then replaced with a 13 mm, 0.45 μm polyvinylidine diflouride syringe filter (Scientific Resources, Titan), and the syringe was vigorously shaken for 30 sec. After 30 sec, 6 drops of the solution was expelled and a subsequent 13 drop sample was delivered to a test tube. After expelling the sample, the syringe plunger was drawn back to pull an air bubble into the syringe to aid in subsequent mixing and the syringe placed back on a rotating wheel in a 37° C. oven. […] The remaining solution in the syringe was mixed by rotating on a wheel at 50 rpm in a 37° C. temperature-controlled box.

The nature of data set [4]: aqueous solubility. As to conditions: pH 6.5. It counts as physicochemical.

In the case of `O=C(N[C@@H](Cc1ccccc1)[C@@H](O)C(=O)N1C[C@@H](O)[C@@H](O)C1)c1cc2cc(Cl)ccc2[nH]1` (relative stereo) [Example C17, 1H-Indole-2-caboxamide, 5-chloro-N-[3-(3,4-dihydroxy-1-pyrrolidinyl)-2-hydroxy-3-oxo-1-(phenylmethnyl)propyl]-, [R—[R*,S*-(cis)]]-], in data set [1], the “MSSC (maximum supersaturated concentration)” value (from here on “MSSC”) is 194 μgA/mL, the C90 was determined as 158 μgA/mL and the C1200 was found to be 194 μgA/mL.

For `CC[C@H]1OC(=O)C[C@@H](O)[C@H](C)[C@@H](O[C@@H]2O[C@H](C)[C@@H](O[C@H]3C[C@@](C)(O)[C@@H](OC(=O)Cc4ccc(OC)cc4)[C@H](C)O3)[C@H](N(C)C)[C@H]2O)[C@@H](CC=O)C[C@@H](C)C(=O)/C=C/C(C)=C/[C@@H]1CO[C@@H]1O[C@H](C)[C@@H](O)[C@@H](OC)[C@H]1OC` [MAT, 4″-0-(4-methoxyphenyl)acetyltylosin], the “supersaturated concentration relative to crystalline MAT” value in data set [2] is reported as 9 fold.

For `CCC(CC)Nc1cc(C)nc(Oc2c(C)cc(C)cc2C)c1C` [Example C16, [3,6-dimethyl-2-(2,4,6-trimethyl-phenoxy)-pyridin-4-yl]-(1-ethyl-propyl)-amine], in data set [1], the “MSSC” value is 22 μgA/mL, the C90 is listed as 22 μgA/mL and the C1200 is listed as 22 μgA/mL.

For the compound `CON(C)C(=O)C(O)[C@H](Cc1ccccc1)NC(=O)c1cc2cc(Cl)ccc2[nH]1` (stereo in doubt) [Compound 1, [R—(R*,S*)]-5-chloro-N-[2-hydroxy-3-(methoxymethylamino)-3-oxo-1-(phenylmethyl)propyl]-1-H-indole-2-carboxamide], the equilibrium solubility in data set [3] (in the dissolution medium (MFD)) was 9 μgA/ml.

On to `Cc1ccc2c(c1)N(CC(=O)NC(C)(C)C)C(=O)C(NC(=O)Nc1cccc(Cl)c1)CC2c1ccccc1` (stereo not drawn) [N-tert-butyl-2-{3-[3-(3-chloro-phenyl)-unreido]-8-methyl-2-oxo-5-phenyl-2,3,4,5-tetrahydrobenxo[b]azepin-1-yl}-acetamide], for which, in data set [4], the aqueous solubility entry is reported as “less than 3.0 μg/ml”.

As for `CON(C)C(=O)C(O)[C@H](Cc1ccccc1)NC(=O)c1cc2cc(Cl)ccc2[nH]1` (stereo in doubt) [Example C1, [R—(R*,S*)]-5-chloro-N-[2-hydroxy-3-(methoxymethylamino)-3-oxo-1-(phenylmethyl)propyl]-1-H-indole-2-carboxamide], the C90 in data set [3] (syringe/filter, MFD, 37° C.) is 10 μgA/mL. For the same compound, in data set [3] (concentration at 180 minutes, syringe/filter, MFD, 37° C.), the C180 was found to be 8.5 μgA/mL. In data set [3] (concentration at 1200 minutes, syringe/filter, MFD, 37° C.), this compound yielded a C1200 of 9 μgA/mL. For the same compound, the “MSSC” value in data set [3] was 10 μgA/mL.

In turn, `O=C1NC(=O)C(c2ccccc2)(c2ccccc2)N1` [Example C14, 5,5-diphenylhydantoin] showed a C3 in data set [1] (concentration at 3 minutes) of 14 μgA/mL. In data set [1] (concentration at 10 minutes), this compound gave a C10 of 20 μgA/mL. In data set [1] (concentration at 20 minutes), this compound yielded a C20 of 28 μgA/mL. Also, in data set [1] (concentration at 40 minutes), the C40 was 34 μgA/mL. The same compound yielded a C90 in data set [1] of 50 μgA/mL.

`COC1=CC(=O)CC(C)C12Oc1c(Cl)c(OC)cc(OC)c1C2=O` (stereo not drawn) [Example C11, 7-chloro-4,6-dimethoxy-courmaran-3-one-2-spiro-1′-(2′-methoxy-6′-methylcyclohex-2′en-4′-one)]: the C60 in data set [3] (concentration at 60 minutes, syringe/filter, MFD, 37° C.) was found to be 17 μgA/mL. In data set [3] (syringe/filter, MFD, 37° C.), this compound gave a C90 of 15 μgA/mL. In addition, the “MSSC” value in data set [3] is reported as 18 μgA/mL.

Turning to `CCC(CC)Oc1cc(C)nc(Oc2c(C)cc(C)cc2C)c1C` [Example C5], in data set [1], the “MSSC” value is recorded as 18 μgA/mL, the C90 turned out to be 18 μgA/mL and the C1200 is given as 13 μgA/mL.

(Values after patent US8337899B2, “Solid pharmaceutical dispersions with enhanced bioavailability” (Bend Research, Inc., priority 1997, dated 2012).)
